Data on one compound can be found in PMC11413854, “Reversible Control of Native GluN2B-Containing NMDA Receptors with Visible Light” (ACS Chemical Neuroscience, 2024).

In the experiment the test system is cultured cortical neurons at DIV 14. Kind of experiment: NMDA excitotoxicity test, neuronal survival by MTT. Type of experiment: cell-based, mouse. Conditions: for neuronal survival: 5 µM inhibitor + 100 µM NMDA + 10 µM glycine; for % of survival, Mean: compound 5µM with NMDA 100µM, MTT A(540 nm) normalized to control (100) and NMDA alone (0). The source says:
We first investigated whether OptoNAM-3 could be used in the context of a patho-physiological process related to GluN1/GluN2B receptors. Overactivation of NMDARs induced by tonic exposure to glutamate or NMDA is well-known to trigger neuronal death.[6] GluN1/GluN2B receptors are thought to be the major player of this neurotoxicity, and GluN1/GluN2B antagonists have proven to be potent neuroprotectants in vitro and in vivo.[5],[15] To test the neuroprotective activity of OptoNAM-3 and its photodependence of action, we performed a protocol of excitotoxicity based on exposure to NMDA (100 μM) of cultured cortical neurons at DIV 14,[15] in the presence of OptoNAM-3. […] OptoNAM-3 in the dark, at a concentration of 5 μM, induced, like ifenprodil, an ∼50% increase in cell survival (Figure S4). […] OptoNAM-3 is therefore able to promote cell survival in neuron cultures in a photodependent manner.
Mice were housed in the IBENS rodent central facility duly accredited by the French Ministry of Agriculture. All experiments were performed in compliance with French and European regulations on care and protection of laboratory animals (EU Directive 2010/63, French Law 2013–118, February 6, 2013), and were approved by local ethics committees and by the French Ministry of Research and Innovation (authorization numbers #05137.02, APAFIS #28867-2020121814485893). Dissociated cultures of cortical neurons were prepared from mouse embryos at E18 as described previously.[84] After removing meninges, cortices were placed in ice-cold HBSS solution. Cell dissociation was performed individually for cortices of each embryo. Cortices were incubated in 2.5% trypsin at 37 °C for 7 min, rinsed three times with 37 °C phosphate buffer saline, and finally suspended in plating medium (Neurobasal Medium, supplemented with 0.5 mM L-glutamine, 1% B27 supplement, and penicillin/streptomycin). The neurons were further dissociated by trituration, and cells were plated on poly-D-lysine coated coverslips in 24-well culture dishes at a density of 3 × 10^5 cells per well for the excitotoxicity test and that of 1 × 10^5 cells per well for patch clamp experiments. Cultures were incubated at 37 °C in a humidified atmosphere of 5% CO2. Cells were fed by changing 1/2 medium to fresh Neurobasal medium every 4 days. For the excitotoxicity experiments, after 5 days in vitro, growth of non-neuronal cells was halted by a 24 h exposure to FDX ([…] 5-fluoro-2′-deoxyuridine). The cultures were used for experiments after 6 to 14 days in vitro (DIV6–8 for patch clamp experiments and DIV14 for excitotoxicity tests).
Excitotoxicity tests were performed 14 days after the culturing step as described in ref[15]. Just before the experiments, the neuronal medium was changed and the neurons incubated in the external patch recording solution (see above). Two replicates of 24 well plates containing cultured cortical neurons were exposed to the same 4 conditions, in which the following compounds were added to the medium: (1) glycine (10 μM) alone (control); (2) glycine (10 μM) + NMDA (100 μM); (3) glycine (10 μM) + NMDA (100 μM) + 5 μM ifenprodil; and (4) glycine (10 μM) + NMDA (100 μM) + 5 μM trans-OptoNAM-3 (dark). One of the two plates was exposed to UV light (Jena analytic US, UVP Hand-held UV lamp UVGL-58, power ∼1 mW) for 2 min. The two plates were then put back in the 37 °C incubator for 10 min. Agonist exposure was terminated by washing out the exposure solution with conditioned Neurobasal medium, prior to returning the dishes to the incubator for 24 h before assessment of neuronal death.
Overall neuronal cell death was determined 24 h after NMDA exposure by the MTT test. Mitochondrial and cytosolic dehydrogenases of living cells reduce the yellow tetrazolium salt (MTT) to produce a purple formazan dye that can be detected spectrophotometrically.[85] […]

Molecules are shown by their SMILES.

With `c1ccc(/N=N/c2ccc(CCNc3ccncc3)cc2)cc1` [OptoNAM-3, (E)-N-(4-(Phenyldiazenyl)phenethyl)pyridin-4-amine], the neuronal survival runs as follows: (2 min UV (365 nm), normalized to control and NMDA) 35%; (dark, normalized to control (100%) and NMDA (0%)) 50%. In addition, the “% of survival, Mean” value (Dark) came to 48.677% and the “% of survival, Mean” value (UV) amounted to 36.192%.
